Test results from ChEMBL document CHEMBL5247622, “Structural optimization of Imidazo[1, 2-a]pyridine derivatives for the treatment of gastric cancer via STAT3 signaling pathway” (Eur J Med Chem, 2022).
pIC50: −log10 of the molar value. Active and inactive are the calls of the source. The calls are words filed in the database; no cut-off is given here.

Tests used:
AGS [1] = test: Inhibition of cell migration in human AGS cells at 0.03 to 0.3 uM incubated for 48 hrs by wound healing assay based microscopic analysis; format: functional; conditions: dose 0.03-0.3 µM
[2] = Toxicity in BALB/c mouse xenografted with human MGC-803 cells assessed as morphological change in spleen at 5 mg/kg,ip administrated for 21 consecutive days by hematoxylin and eosin staining method; format: organism-based; conditions: in vivo
MGC-803 [3] = test: Inhibition of cell invasion in human MGC-803 cells at 0.03 to 0.3 uM incubated for 12 hrs by crystal violet staining based transwell assay; format: functional; conditions: dose 0.03-0.3 µM
AGS [4] = test: Induction of apoptosis in human AGS cells assessed as early apoptotic cells at 3 uM incubated for 48 hrs by Annexin V-FITC/PI staining based flow cytometry method (reference value: 2.38 %); format: functional
MGC-803 [5] = test: Antitumor activity against human MGC-803 cells xenografted in BALB/c mouse assessed as reduction of Ki67 expression level in tumor at 15 mg/kg,ip administrated for 21 consecutive days by immunohistochemistry analysis; format: functional, organism-based
AGS [6] = test: Induction of apoptosis in human AGS cells assessed as viable cells at 1 uM incubated for 48 hrs by Annexin V-FITC/PI staining based flow cytometry method (reference value: 94.8 %); format: functional; conditions: read-out: Activity
[7] = biological target: T1, Signal transducer and activator of transcription 1-alpha/beta (Homo sapiens) (UniProt P42224); test: Inhibition of STAT1 in human AGS cells assessed as inhibition of STAT1 phosphorylation level at Tyr701 at 0.3 to 3 uM by western blot assay; format: cell-based; conditions: dose 0.3-3 µM
T1 sequence (whole entry): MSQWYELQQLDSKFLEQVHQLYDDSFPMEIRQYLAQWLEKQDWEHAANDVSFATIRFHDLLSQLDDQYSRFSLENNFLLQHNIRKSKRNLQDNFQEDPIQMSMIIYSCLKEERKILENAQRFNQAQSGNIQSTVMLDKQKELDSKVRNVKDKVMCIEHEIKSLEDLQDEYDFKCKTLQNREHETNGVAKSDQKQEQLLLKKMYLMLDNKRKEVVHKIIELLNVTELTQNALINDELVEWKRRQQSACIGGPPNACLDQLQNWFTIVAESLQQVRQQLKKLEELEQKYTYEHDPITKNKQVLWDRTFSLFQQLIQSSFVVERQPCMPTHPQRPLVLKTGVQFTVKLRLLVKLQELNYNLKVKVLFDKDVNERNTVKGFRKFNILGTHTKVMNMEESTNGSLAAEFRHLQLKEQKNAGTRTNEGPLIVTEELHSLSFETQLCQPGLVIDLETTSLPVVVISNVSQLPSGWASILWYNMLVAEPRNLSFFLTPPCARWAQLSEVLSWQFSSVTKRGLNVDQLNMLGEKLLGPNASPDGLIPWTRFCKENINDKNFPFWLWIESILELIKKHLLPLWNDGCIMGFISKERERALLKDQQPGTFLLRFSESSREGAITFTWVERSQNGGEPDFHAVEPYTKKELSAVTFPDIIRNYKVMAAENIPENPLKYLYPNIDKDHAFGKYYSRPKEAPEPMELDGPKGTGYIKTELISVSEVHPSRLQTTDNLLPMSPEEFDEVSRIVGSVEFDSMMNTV

AGS [8] = test: Induction of apoptosis in human AGS cells assessed as early apoptotic cells at 0.3 uM incubated for 48 hrs by Annexin V-FITC/PI staining based flow cytometry method (reference value: 2.38 %); format: functional
[9] = Toxicity in BALB/c mouse xenografted with human MGC-803 cells assessed as morphological change in heart at 5 mg/kg,ip administrated for 21 consecutive days by hematoxylin and eosin staining method; format: organism-based; conditions: in vivo
[10] = biological target: Signal transducer and activator of transcription 3 (Homo sapiens) (UniProt P40763); test: Inhibition of STAT3 in human AGS cells assessed as inhibition of total STAT3 protein level at 0.3 to 3 uM by western blot assay; format: cell-based; conditions: dose 0.3-3 µM
[11] = biological target: Signal transducer and activator of transcription 3 (Homo sapiens) (UniProt P40763); test: Inhibition of STAT3 in human AGS cells assessed as reduction of c-Myc protein expression level at 0.3 to 3 uM by western blot assay; format: cell-based; conditions: dose 0.3-3 µM
[12] = biological target: Signal transducer and activator of transcription 3 (Homo sapiens) (UniProt P40763); test: Inhibition of STAT3 in human AGS cells assessed as reduction of Mcl-1 protein expression level at 0.3 to 3 uM by western blot assay; format: cell-based; conditions: dose 0.3-3 µM
[13] = biological target: Signal transducer and activator of transcription 3 (Homo sapiens) (UniProt P40763); test: Inhibition of Flag-tagged STAT3 (unknown origin) dimerization transfected in HEK293T cells at 0.3 to 3 uM incubated for 24 hrs followed by IL-6 stimulation and measured after 1 hr by immunoprecipitation assay; format: cell-based; conditions: dose 0.3-3 µM, time 25.0 hrs
MGC-803 [14] = test: Inhibition of colony formation in human MGC-803 cells at 0.3 to 3 uM incubated for 10 to 15 days by crystal violet staining based assay; format: functional, cell-based; conditions: dose 0.3-3 µM, time 10-15 day
[15] = Toxicity in BALB/c mouse xenografted with human MGC-803 cells assessed as morphological change in kidney at 15 mg/kg,ip administrated for 21 consecutive days by hematoxylin and eosin staining method; format: organism-based; conditions: in vivo
[16] = Toxicity in BALB/c mouse xenografted with human MGC-803 cells assessed as morphological change in kidney at 5 mg/kg,ip administrated for 21 consecutive days by hematoxylin and eosin staining method; format: organism-based; conditions: in vivo
[17] = biological target: Signal transducer and activator of transcription 3 (Homo sapiens) (UniProt P40763); test: In vivo inhibition of STAT3 in BALB/c mouse xenografted with human MGC-803 cells assessed as reduction of c-Myc expression in tumor at 5 mg/kg,ip administrated for 21 consecutive days by immunohistochemistry analysis; format: functional, organism-based
MGC-803 [18] = test: Antitumor activity against human MGC-803 cells xenografted in BALB/c mouse assessed as reduction of Ki67 expression level in tumor at 5 mg/kg,ip administrated for 21 consecutive days by immunohistochemistry analysis; format: functional, organism-based
[19] = Toxicity in BALB/c mouse xenografted with human MGC-803 cells assessed as morphological change in liver at 5 mg/kg,ip administrated for 21 consecutive days by hematoxylin and eosin staining method; format: organism-based; conditions: in vivo
MGC-803 [20] = test: Antitumor activity against human MGC-803 cells xenografted in BALB/c mouse assessed as inhibition of tumor volume at 5 to 15 mg/kg,ip administrated for 21 consecutive days; format: functional, organism-based; conditions: dose 5-15 mg/kg
AGS [21] = test: Induction of apoptosis in human AGS cells assessed as necrotic cells at 1 uM incubated for 48 hrs by Annexin V-FITC/PI staining based flow cytometry method (reference value: 0.32 %); format: functional
[22] = biological target: Signal transducer and activator of transcription 3 (Homo sapiens) (UniProt P40763); test: Inhibition of STAT3 in human AGS cells assessed as inhibition of STAT3 phosphorylation level at Tyr705 at 0.3 to 3 uM by western blot assay; format: cell-based; conditions: dose 0.3-3 µM
AGS [23] = test: Antiproliferative activity against human AGS cells assessed as reduction in cell viability incubated for 72 hrs by CCK-8 assay; format: functional, cell-based

Sequence of Signal transducer and activator of transcription 3 (Homo sapiens) (P40763 whole entry): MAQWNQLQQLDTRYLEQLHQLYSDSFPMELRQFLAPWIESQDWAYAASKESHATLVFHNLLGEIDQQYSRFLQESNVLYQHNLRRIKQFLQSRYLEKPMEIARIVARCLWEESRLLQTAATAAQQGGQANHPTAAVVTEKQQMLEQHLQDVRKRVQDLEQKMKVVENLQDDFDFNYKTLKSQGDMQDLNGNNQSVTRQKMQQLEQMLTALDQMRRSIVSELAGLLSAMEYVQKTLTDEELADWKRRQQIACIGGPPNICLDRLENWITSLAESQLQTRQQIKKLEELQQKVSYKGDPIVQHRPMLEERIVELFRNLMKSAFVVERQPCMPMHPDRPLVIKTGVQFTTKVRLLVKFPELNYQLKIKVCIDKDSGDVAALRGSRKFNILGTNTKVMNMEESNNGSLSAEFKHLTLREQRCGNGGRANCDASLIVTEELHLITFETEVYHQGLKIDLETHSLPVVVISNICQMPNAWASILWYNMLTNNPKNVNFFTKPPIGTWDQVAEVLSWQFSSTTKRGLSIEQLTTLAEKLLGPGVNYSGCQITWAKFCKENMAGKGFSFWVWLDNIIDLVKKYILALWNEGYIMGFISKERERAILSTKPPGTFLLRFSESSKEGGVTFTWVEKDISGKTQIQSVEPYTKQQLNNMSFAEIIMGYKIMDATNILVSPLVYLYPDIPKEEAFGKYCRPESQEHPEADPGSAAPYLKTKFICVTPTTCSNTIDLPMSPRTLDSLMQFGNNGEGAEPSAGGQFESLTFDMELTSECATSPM

Structure (SMILES): Cc1cc(NC(=O)c2ccc([N+](=O)[O-])o2)ccc1-c1cnc2ccccn12
- inhibition (AGS [1]): Dose-Dependent Effect
- Activity [2]: Non-Toxic
- inhibition (MGC-803 [3]): Active
- Activity (AGS [4]): 12.1%
- inhibition (MGC-803 [5]): Active
- viability at 1 µM (AGS [6]): 92.1%
- inhibition [7]: inactive
- Activity (AGS [8]): 2.49%
- Activity [9]: Non-Toxic
- inhibition [10]: inactive
- inhibition [11]: Active
- inhibition [12]: Active
- inhibition [13]: Dose-Dependent Effect
- inhibition (MGC-803 [14]): Dose-Dependent Effect
- Activity [15]: Non-Toxic
- Activity [16]: Non-Toxic
- inhibition [17]: Active
- inhibition (MGC-803 [18]): Active
- Activity [19]: Non-Toxic
- inhibition (MGC-803 [20]): Dose-Dependent Effect
- Activity (AGS [21]): 0.75%
- inhibition [22]: Dose-Dependent Effect
- pIC50 (AGS [23]): 6.41
